The values below come from PMC5515844, “A new Prenylated Flavonoid induces G0/G1 arrest and apoptosis through p38/JNK MAPK pathways in Human Hepatocellular Carcinoma cells” (Scientific Reports, 2017).

One may read the IC50 as the point on the concentration scale where inhibition reaches its midpoint. Read a high IC50 as weaker potency.

The test system of assay [1] is LO2. Kind of assay: MTT cytotoxicity assay, normal hepatic cells. It is filed as cell-based. The settings on record: mean ± SD. The procedure:
(§1) HepG2 and Hep3B (human hepatoma cells), Bcap37 and MCF-7 (human breast cancer cells), TE-1 (human esophageal cancer cells), A549 (human lung carcinoma cells), U251 and U87 (human glioma cells), were cultured in Dulbecco’s modified Eagle’s medium (DMEM) supplemented with 10% fetal bovine serum (FBS) and 1% penicillin/streptomycin (10000 U/mL penicillin, 10000 μg/ml streptomycin). SH-SY5Y (human neuroblastoma cells), LO2 (human normal liver cell) were grown in RPMI 1640 containing 10% FBS and 100 µg/ml penicillin, 100 µg/ml streptomycin. HepG2, Hep3B, MCF-7, TE-1, A549, U87, U251 and SHSY5Y cells were obtained from the American Type Culture Collection (Manassas, VA, USA). Bcap37 and LO2 cells were purchased from the Cell Bank of Chinese Academy of Sciences (Shanghai, China). All cells were incubated in a humidified atmosphere containing 5% CO2 at 37 °C.
(§2) Cells seeded in 96-well plates with 5 × 10^3 cells/well were adhered overnight and incubated with vehicle control (DMSO) or diverse concentrations of compounds for 48 h. After treatment, 20 μL of MTT (5 mg/mL) was added to each well and incubated for another 4 h at 37 °C. Then, 150 μL of DMSO/well was appended after removed the supernatant to dissolve the formed purple formazan crystals and the color absorbance was measured at 490 nm using a microplate reader (Molecular Devices, Thermo, CA, USA). The inhibition rate (%) was calculated as (A490(control) − A490(drug groups))/(A490(control) − A490(blank)) × 100 and the value of IC50 (the concentration that caused 50% inhibition of cell viability) was determined using SPSS 20.0. This experiment was measured in triplicate, independently.
For orientation: Tetrazolium assays rely on reduction of a dye to a coloured formazan, in cell work by metabolically active cells.

Assay [2] relates to Hep3B cells. Kind of assay: Clonogenic assay. It is filed as cell-based, human. The conditions noted are these: two weeks, dose-dependent. Here is the method:
(§3) The clonogenic assay was performed to appraise the effect of daphnegiravone D on cell proliferation. Hep3B (800 cells/well) or HepG2 (4,000 cells/well) cells were seeded in 6-well plates in 2 mL complete media overnight and attachment cells were incubated with various concentrations of daphnegiravone D for two weeks. Then, cells were washed twice with PBS carefully and fixed with 4.0% paraformaldehyde for 30 min, and stained with 0.5% crystal violet at room temperature for 30 min. Colonies containing exceeding 50 cells/colony were counted under microscope. All experiments were independently performed three times.

Assay [3] has as its system HepG2 cells. The experiment in a line: Clonogenic assay. It is filed as cell-based, human. The settings on record: HepG2, two weeks, dose-dependent. Here is the method:
as §3

The subject of assay [4] is U251. The experiment in a line: MTT cytotoxicity assay. It is filed as cell-based. The settings on record: Homo sapiens, U-251, 48 h, mean ± SD. The procedure: as §1, §2
For assay [5], the system named is MCF-7. Kind of assay: MTT cytotoxicity assay. The conditions noted are these: Homo sapiens, MCF7, 48 h, mean ± SD. It is filed as cell-based. The procedure: as §1, §2
Assay [6] concerns Bcap37. Kind of assay: MTT cytotoxicity assay. It is filed as cell-based. The conditions noted are these: Homo sapiens, 48 h, mean ± SD. Here is the method:
as §1, §2

Assay [7] deals with SH-SY5Y. Kind of assay: MTT cytotoxicity assay. It is filed as cell-based. The conditions noted are these: Homo sapiens, 48 h, mean ± SD. Here is the method:
as §1, §2

For assay [8], the system named is TE-1. Kind of assay: MTT cytotoxicity assay. It is filed as cell-based. The conditions noted are these: Homo sapiens, 48 h, mean ± SD. The procedure: as §1, §2
Assay [9] has as its system U87. The experiment in a line: MTT cytotoxicity assay. It is filed as cell-based. The conditions noted are these: Homo sapiens, U-87 MG, 48 h, mean ± SD. The procedure: as §1, §2
Assay [10] concerns A549. The experiment in a line: MTT cytotoxicity assay. The conditions noted are these: Homo sapiens, 48 h, mean ± SD. It is filed as cell-based. Here is the method: as §1, §2
The test system of assay [11] is Hep3B xenografts. Kind of assay: In vivo antitumor activity, nude mouse xenograft model. Details: species or system BALB/c nude mice. The settings on record: for inhibition rate of the tumor volume: vs vehicle group. Here is the method:
All of the animal studies and procedures were conducted in accordance with the approval and guidelines of the Shenyang Pharmaceutical University Institutional Animal Care and Use Committee (permission number: SCXK (Jing) 2014-0004). Male BALB/c nude mice at the age of six weeks were obtained from Beijing HFK Bioscience Co., Ltd (Beijing, China). Hep3B cells (1 × 10^5 cells) were implanted subcutaneously into the right backsides of each nude mouse. After 12 days, when the tumor size reached about 100 mm^3, the mice were randomly divided into three groups (n = 6) and intraperitoneally injected with vehicle control or daphnegiravone D (5 and 10 mg/kg body weight) every two days for two weeks. The body weight and tumor sizes were measured every day, and the tumor volume was determined by caliper measurements and calculated by the formula: 0.5236 × L × W ^2, where L is the long axis and W is the short axis of the tumor. The experiment was terminated when the tumors volume of the control group reached about 3000 mm^3. The mice were sacrificed, and the tumors, hearts, livers, spleens, lungs and kidneys were excised immediately to evaluate the antitumor activity and toxicity of daphnegiravone D.
Mouse major organs (heart, liver, spleen, lung, kidney) and tumors were isolated and fixed in 10% buffered formalin for 3 days and embedded in paraffin. The tissues were sectioned at a thickness of 4 μm, and the obtained organ sections were prepared orderly by dewaxing, staining in hematoxylin and eosin-phloxine solution, then dehydrated and mounted with neutral resin. Subsequently, the tumor paraffin sections were deparaffinized, rehydrated, and subjected to antigen retrieval. Immunostaining was performed by the streptavidin-peroxidase (S-P) method (Ultra-sensitive; MaiXin, Fuzhou, China). The primary antibody was mouse anti-Ki67 monoclonal antibody (Maixin Biotech, Fuzhou, China). The peroxidase reaction was developed with 3,3-diaminobenzidine (Maixin Biotech, Fuzhou, China). Finally, the sections tissue morphology were observed using an OLYMPUS microscope.

The subject of assay [12] is Hep3B cells. Kind of assay: Cell cycle analysis, PI staining, flow cytometry. It is filed as cell-based, human. The settings on record: different concentrations, 24 and 48 h. The procedure: (§4) Flow cytometry was used to determine the cell cycle effects of daphnegiravone D on Hep3B and HepG2 cells. Cells were seeded (2 × 10^5 cells/well) into six-well plates with complete DMEM medium for 24 h and treated with various concentrations of daphnegiravone D for 24 and 48 h. Cells were harvested after treatment, washed with cold PBS, and fixed with 70% ethanol at 4 °C overnight. Then, resuspended cell pellets in staining buffer, blended in RNase A and PI staining for 30 min at 37 °C. Cell cycle phase was investigated using a FACSCalibur flow cytometer (BD Biosciences, New Jersey, USA). The results were analyzed with FlowJo software (v7.6.5, Tree Star, Inc.).
For orientation: Flow cytometry measures light scatter and fluorescence of single cells or particles in a stream.

The test system of assay [13] is HepG2 cells. The experiment in a line: Cell cycle analysis, PI staining, flow cytometry. It is filed as cell-based, human. The conditions noted are these: HepG2, different concentrations, 24 and 48 h. Here is the method:
as §4

Structures are written as SMILES.

As to `COc1c(-c2ccc(O)c(CC=C(C)C)c2)oc2c(CC=C(C)C)c(O)cc(O)c2c1=O` [Compound 1, daphnegiravone D], the IC50 is 45.1 ± 3.09 µM in assay [1] (48 h, normal human hepatic cells); around 45 µM in assay [1] (Homo sapiens, L02, 48 h); 33.4 ± 3.03 µM in assay [4]; 22.3 ± 2.18 µM in assay [5]; 28 ± 1.94 µM in assay [6]; 39.1 ± 3.67 µM in assay [7]. The results for the 50% inhibitory concentration (IC50) in [8], in assay [9] and in [10] were 19.3 ± 2.3 µM, 35.1 ± 3.97 µM and 21.8 ± 1.34 µM, respectively. Besides, the colonies entry in assay [2] and in [3] was “dramatically reduced” throughout. The “inhibition rate of the tumor volume” value is given as “approximately 35.9%” in assay [11] (5 mg/kg i.p. every two days for two weeks) and around 50.3% in assay [11] (10 mg/kg i.p. every two days for two weeks). Moreover, the “tumor volume and tumor weight” value in assay [11] (5 and 10 mg/kg i.p. every two days for two weeks) is listed as “markedly decreased”. In [11] (immunohistochemistry, vs vehicle control), the “Ki-67 labeling index (proliferation capacity of tumor)” value is on record as “lower proliferation capacity”. For the same molecule, the cell cycle arrest entry in assay [12] and in assay [13] was “significantly arrested at G0/G1 phase” in each case.
